Assay results published in patent publication US20240116985A1, “STAPLED PEPTIDES AND METHODS THEREOF” (priority 2020, published 2024).

Experiments:
[1] = target: T1, full-length beta-Catenin (Uniprot ID P35222) (Homo sapiens, UniProt P35222); experiment: Fluorescence polarization IC50 (beta-catenin / 5FAM-TCF4 10-53 competition); type: binding; settings: fluorescence polarization; read-out: beta-Catenin FP IC50
T1 construct: 10 nM full-length beta-Catenin (Uniprot ID P35222)
T1 sequence (P35222 1-781): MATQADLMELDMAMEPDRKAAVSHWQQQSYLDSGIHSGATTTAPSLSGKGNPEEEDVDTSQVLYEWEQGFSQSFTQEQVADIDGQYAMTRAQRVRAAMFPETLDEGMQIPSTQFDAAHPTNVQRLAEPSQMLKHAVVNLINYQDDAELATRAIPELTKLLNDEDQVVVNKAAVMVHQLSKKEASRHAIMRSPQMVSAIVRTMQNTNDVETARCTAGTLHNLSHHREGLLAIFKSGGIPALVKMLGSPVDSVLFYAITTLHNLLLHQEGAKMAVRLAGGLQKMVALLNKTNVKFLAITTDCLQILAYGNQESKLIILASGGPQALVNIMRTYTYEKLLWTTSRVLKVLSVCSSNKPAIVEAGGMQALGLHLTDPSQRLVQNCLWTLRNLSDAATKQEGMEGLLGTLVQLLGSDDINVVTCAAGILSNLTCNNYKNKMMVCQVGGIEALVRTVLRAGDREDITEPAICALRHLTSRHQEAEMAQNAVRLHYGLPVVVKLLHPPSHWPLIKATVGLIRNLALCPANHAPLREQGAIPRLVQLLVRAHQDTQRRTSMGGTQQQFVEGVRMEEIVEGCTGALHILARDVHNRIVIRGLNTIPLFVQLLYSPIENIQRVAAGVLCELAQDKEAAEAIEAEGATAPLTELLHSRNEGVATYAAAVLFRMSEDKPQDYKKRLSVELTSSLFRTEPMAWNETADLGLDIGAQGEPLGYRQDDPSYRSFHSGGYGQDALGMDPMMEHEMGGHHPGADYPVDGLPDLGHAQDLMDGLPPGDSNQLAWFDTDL

[2] = target: T2, beta-catenin/TCF4 engagement (Homo sapiens, UniProt P35222); experiment: Nano-BRET target engagement assay (B-cat-Halo & TCF4-Luc in HEK293 cells); type: cell-based; settings: absolute IC50; read-out: NanoBRET Abs IC50
T2 construct: expressed in transfected cells; host or cells: HEK293
T2 sequence (P35222 1-781): T1 sequence (P35222 1-781)

| SMILES | IC50 [1] | IC50 [2] |
| --- | --- | --- |
| CC(=O)N1CCC[C@]12CC=CCCCC1(CCCC=CCCCOC(=O)N3CC[C@@](C(=O)N[C@@H](Cc4ccccc4C(F)(F)F)C(=O)N[C@@H](Cc4ccc(Cl)cc4)C(=O)N[C@@H](C)C(N)=O)(C3)NC(=O)[C@H](CC(C)C)NC(=O)[C@H](Cc3ccccc3)NC(=O)[C@H](C)NC(=O)[C@H](CCC(N)=O)NC(=O)[C@H](Cc3cccc(C(=O)O)c3)NC(=O)[C@H](CC(=O)O)NC1=O)NC(=O)[C@H](CC(C)(C)C)NC(=O)[C@H](CC(=O)O)NC2=O (stereo partly drawn) [I-2223, Ac-PL3-Asp-Npg-B5-Asp-3COOHF-Gln-Ala-Phe-Leu-PyrS2-2F3MeF-4C1F-Ala-NH2] | 50 nM | 9000 nM |
| CC(=O)N1CCC[C@]12CC=CCCCC1(CCCC=CCCCOC(=O)N3CC[C@@](C(=O)N[C@@H](Cc4ccsc4)C(=O)N[C@@H](Cc4cccc(Cl)c4)C(=O)N[C@@H](CCC(N)=O)C(N)=O)(C3)NC(=O)[C@H](CC(C)C)NC(=O)[C@H](Cc3ccccc3)NC(=O)[C@H](C)NC(=O)[C@H](C)NC(=O)[C@H](Cc3cccc(C(=O)O)c3)NC(=O)[C@H](CC(=O)O)NC1=O)NC(=O)[C@H](CC(C)(C)C)NC(=O)[C@H](CC(=O)O)NC2=O (stereo partly drawn) [I-2224, Ac-PL3-Asp-Npg-B5-Asp-3COOHF-Ala-Ala-Phe-Leu-PyrS2-3Thi-3C1F-Gln-NH2] | 14 nM | 14200 nM |
| CC(=O)N1CCC[C@]12CC=CCCCC1(CCCC=CCCCOC(=O)N3CC[C@@](C(=O)N[C@@H](Cc4ccccc4C(F)(F)F)C(=O)N[C@@H](Cc4cccc(Cl)c4)C(=O)N[C@@H](CO)C(N)=O)(C3)NC(=O)[C@H](CC(C)C)NC(=O)[C@H](Cc3ccccc3)NC(=O)[C@H](C)NC(=O)[C@H](C)NC(=O)[C@H](Cc3cccc(C(=O)O)c3)NC(=O)[C@H](CC(=O)O)NC1=O)NC(=O)[C@H](CC(C)(C)C)NC(=O)[C@H](CC(=O)O)NC2=O (stereo partly drawn) [I-2226, Ac-PL3-Asp-Npg-B5-Asp-3COOHF-Ala-Ala-Phe-Leu-PyrS2-2F3MeF-3C1F-Ser-NH2] | 97 nM | 10600 nM |
| CC(=O)N1CCC[C@]12CC=CCCCC1(CCCC=CCCCOC(=O)N3CC[C@@](C(=O)N[C@@H](Cc4ccsc4)C(=O)N[C@@H](Cc4csc5ccccc45)C(=O)N[C@@H](CCC(N)=O)C(N)=O)(C3)NC(=O)[C@H](CC(C)C)NC(=O)[C@H](Cc3ccccc3)NC(=O)[C@H](C)NC(=O)[C@H](C)NC(=O)[C@H](CN(CC(=O)O)C(=O)CCCN(C)C)NC(=O)[C@H](CC(=O)O)NC1=O)NC(=O)[C@H](CC(C)(C)C)NC(=O)[C@H](CC(=O)O)NC2=O (stereo partly drawn) [I-2233, Ac-PL3-Asp-Npg-B5-Asp-[NdiMeButC]GA-Ala-Ala-Phe-Leu-PyrS2-3Thi-BztA-Gln-NH2] | 14 nM | > 20000 nM |
| CC(=O)N1CCC[C@]12CC=CCCCC1(CCCC=CCCCOC(=O)N3CC[C@@](C(=O)N[C@@H](Cc4ccsc4)C(=O)N[C@@H](Cc4csc5ccccc45)C(=O)N[C@@H](CCC(N)=O)C(N)=O)(C3)NC(=O)[C@H](CC(C)C)NC(=O)[C@H](Cc3ccccc3)NC(=O)[C@H](C)NC(=O)[C@H](C)NC(=O)[C@H](CN(CC(=O)O)C(=O)CCN(C)C)NC(=O)[C@H](CC(=O)O)NC1=O)NC(=O)[C@H](CC(C)(C)C)NC(=O)[C@H](CC(=O)O)NC2=O (stereo partly drawn) [I-2234, Ac-PL3-Asp-Npg-B5-Asp-[Me2NPr]GA-Ala-Ala-Phe-Leu-PyrS2-3Thi-BztA-Gln-NH2] | 22 nM | > 20000 nM |
| CC(=O)N1CCC[C@]12CC=CCCCC1(CCCC=CCCCOC(=O)N3CC[C@@](C(=O)N[C@@H](Cc4ccsc4)C(=O)N[C@@H](Cc4csc5ccccc45)C(=O)N[C@@H](CCC(N)=O)C(N)=O)(C3)NC(=O)[C@H](CC(C)C)NC(=O)[C@H](Cc3ccccc3)NC(=O)[C@H](C)NC(=O)[C@H](C)NC(=O)[C@H](CN(CC(=O)O)C(=O)C3CCN(C)CC3)NC(=O)[C@H](CC(=O)O)NC1=O)NC(=O)[C@H](CC(C)(C)C)NC(=O)[C@H](CC(=O)O)NC2=O (stereo partly drawn) [I-2235, Ac-PL3-Asp-Npg-B5-Asp-[4AcMePip]GA-Ala-Ala-Phe-Leu-PyrS2-3Thi-BztA-Gln-NH2] | 40 nM | > 20000 nM |

Further molecules by falling IC50 [1], results first:

| IC50 [1] | IC50 [2] | SMILES |
| --- | --- | --- |
| 84 nM | 11700 nM | CC(=O)N1CCC[C@]12CC=CCCCC1(CCCC=CCCCOC(=O)N3CC[C@@](C(=O)N[C@@H](Cc4ccccc4C(F)(F)F)C(=O)N[C@@H](Cc4ccc(Cl)cc4)C(=O)N[C@@H](CO)C(N)=O)(C3)NC(=O)[C@H](CC(C)C)NC(=O)[C@H](Cc3ccccc3)NC(=O)[C@H](C)NC(=O)[C@H](C)NC(=O)[C@H](Cc3cccc(C(=O)O)c3)NC(=O)[C@H](CC(=O)O)NC1=O)NC(=O)[C@H](CC(C)(C)C)NC(=O)[C@H](CC(=O)O)NC2=O (stereo partly drawn) [I-2222, Ac-PL3-Asp-Npg-B5-Asp-3COOHF-Ala-Ala-Phe-Leu-PyrS2-2F3MeF-4C1F-Ser-NH2] |
| 47 nM | 6300 nM | CC(=O)N1CCC[C@]12CC=CCCCC1(CCCC=CCCCOC(=O)N3CC[C@@](C(=O)N[C@@H](Cc4ccccc4C(F)(F)F)C(=O)N[C@@H](Cc4cccc(Cl)c4)C(=O)N[C@@H](C)C(N)=O)(C3)NC(=O)[C@H](CC(C)C)NC(=O)[C@H](Cc3ccccc3)NC(=O)[C@H](C)NC(=O)[C@H](CCC(N)=O)NC(=O)[C@H](Cc3cccc(C(=O)O)c3)NC(=O)[C@H](CC(=O)O)NC1=O)NC(=O)[C@H](CC(C)(C)C)NC(=O)[C@H](CC(=O)O)NC2=O (stereo partly drawn) [I-2227, Ac-PL3-Asp-Npg-B5-Asp-3COOHF-Gln-Ala-Phe-Leu-PyrS2-2F3MeF-3C1F-Ala-NH2] |
| 23 nM | 15300 nM | CC(=O)N1CCC[C@]12CC=CCCCC1(CCCC=CCCCOC(=O)N3CC[C@@](C(=O)N[C@@H](Cc4ccsc4)C(=O)N[C@@H](Cc4csc5ccccc45)C(=O)N[C@@H](CCC(N)=O)C(N)=O)(C3)NC(=O)[C@H](CC(C)C)NC(=O)[C@H](Cc3ccccc3)NC(=O)[C@H](C)NC(=O)[C@H](C)NC(=O)[C@H](CN(CC(=O)O)C(=O)Cc3ccc(C(F)(F)F)cc3)NC(=O)[C@H](CC(=O)O)NC1=O)NC(=O)[C@H](CC(C)(C)C)NC(=O)[C@H](CC(=O)O)NC2=O (stereo partly drawn) [I-2236, Ac-PL3-Asp-Npg-B5-Asp-[4CF3PhAc]GA-Ala-Ala-Phe-Leu-PyrS2-3Thi-BztA-Gln-NH2] |
| 13 nM | 7800 nM | CC(=O)N1CCC[C@]12CC=CCCCC1(CCCC=CCCCOC(=O)N3CC[C@@](C(=O)N[C@@H](Cc4ccsc4)C(=O)N[C@@H](Cc4cccc(Cl)c4)C(=O)N[C@@H](C)C(N)=O)(C3)NC(=O)[C@H](C(C)C)NC(=O)[C@H](Cc3ccccc3)NC(=O)[C@H](C)NC(=O)[C@H](CCC(N)=O)NC(=O)[C@H](Cc3cccc(C(=O)O)c3)NC(=O)[C@H](CC(=O)O)NC1=O)NC(=O)[C@H](CC(C)(C)C)NC(=O)[C@H](CC(=O)O)NC2=O (stereo partly drawn) [I-2225, Ac-PL3-Asp-Npg-B5-Asp-3COOHF-Gln-Ala-Phe-Val-PyrS2-3Thi-3C1F-Ala-NH2] |
| 11 nM | 5000 nM | CC(=O)N1CCC[C@]12CC=CCCCC1(CCCC=CCCCOC(=O)N3CC[C@@](C(=O)N[C@@H](Cc4ccsc4)C(=O)N[C@@H](Cc4ccc(Cl)cc4)C(=O)N[C@@H](C)C(N)=O)(C3)NC(=O)[C@H](C(C)C)NC(=O)[C@H](Cc3ccccc3)NC(=O)[C@H](C)NC(=O)[C@H](CCC(N)=O)NC(=O)[C@H](Cc3cccc(C(=O)O)c3)NC(=O)[C@H](CC(=O)O)NC1=O)NC(=O)[C@H](CC(C)(C)C)NC(=O)[C@H](CC(=O)O)NC2=O (stereo partly drawn) [I-2221, Ac-PL3-Asp-Npg-B5-Asp-3COOHF-Gln-Ala-Phe-Val-PyrS2-3Thi-4C1F-Ala-NH2] |
